Laboratory results: patent US20200339511A1, “Substituted indoline derivatives as dengue viral replication inhibitors” (priority 2016, published 2020)
Read-outs that look alike come from different tables or passages of the source.

How the values were obtained:
[1] = test system: DENV-2 16681 strain; test: DENV-2 antiviral assay (eGFP-labeled virus in Vero cells); format: cell-based, Dengue virus; details: DENV-2 16681 eGFP, MOI 0.5, 3 days
Protocol: The antiviral activity of all the compounds of the invention was tested the against DENV-2 16681 strain which was labeled with enhanced green fluorescent protein (eGPF). The culture medium consists of minimal essential medium supplemented with 2% of heat-inactivated fetal calf serum, 0.04% gentamycin (50 mg/mL) and 2 mM of L-glutamine. Vero cells, obtained from ECACC, were suspended in culture medium and 25 μL was added to 384-well plates (2500 cells/well), which already contain the antiviral compounds. Typically, these plates contain a 5-fold serial dilution of 9 dilution steps of the test compound at 200 times the final concentration in 100% DMSO (200 nL). […] Finally, each plate contains wells which are assigned as virus controls (containing cells and virus in the absence of compound), cell controls (containing cells in the absence of virus and compound) and medium controls (containing medium in the absence of cells, virus and compounds). To the wells assigned as medium control, 25 μL of culture medium was added instead of Vero cells. Once the cells were added to the plates, the plates were incubated for 30 minutes at room temperature to allow the cells to distribute evenly within the wells. Next, the plates were incubated in a fully humidified incubator (37° C., 5% CO2) until the next day. Then, DENV-2 strain 16681, labeled with eGFP, was added at a multiplicity of infection (MOI) of 0.5. Therefore, 15 μL of virus suspension was added to all the wells containing test compound and to the wells assigned as virus control. In parallel, 15 μL of culture medium was added to the medium and cell controls. Next, the plates were incubated for 3 days in a fully humidified incubator (37° C., 5% CO2). At the day of the read out, the eGFP fluorescence was measured using an automated fluorescence microscope at 488 nm (blue laser). Using an in-house LIMS system, inhibition dose response curves for each compound were calculated and the half maximal effective concentration (EC50) was determined. Therefore, the percent inhibition (I) for every test concentration is calculated using the following formula: I=100*(ST-SCC)/(SVC-SCC), ST, SCC and SVC are the amount of eGFP signal in the test compound, cell control and virus control wells, respectively. The EC50 represents the concentration of a compound at which the virus replication is inhibited with 50%, as measured by a 50% reduction of the eGFP fluorescent intensity compared to the virus control. The EC50 is calculated using linear interpolation (Table 1).

[2] = in vitro; details: African green monkey
[3] = test system: DENV-1 strain TC974#666; test: Tetravalent RT-qPCR assay, serotype 1; format: cell-based, Dengue virus; details: Dengue virus, DENV1, Vero, 72 h, RT-qPCR serotype 1 TC974#666, Protocol A, Vero cells, day 3
Protocol: (§1) Tetravalent reverse transcriptase quantitative-PCR (RT-qPCR) assay The antiviral activity of the compounds of the invention was tested against DENV-1 strain TC974#666 (NCPV), DENV-2 strain 16681, DENV-3 strain H87 (NCPV) and DENV-4 strain H241 (NCPV) in a RT-qPCR assay. Therefore, Vero cells were infected with either DENV-1, or -2, or -3, or -4 in the presence or absence of test compounds. At day 3 post-infection, the cells were lysed and cell lysates were used to prepare cDNA of both a viral target (the 3′UTR of DENV; Table 2) and a cellular reference gene (β-actin, Table 2). Subsequently, a duplex real time PCR was performed on a Lightcycler480 instrument. The generated Cp value is inversely proportional to the amount of RNA expression of these targets. Inhibition of DENV replication by a test compound results in a shift of Cp's for the 3′UTR gene. On the other hand, if a test compound is toxic to the cells, a similar effect on β-actin expression will be observed. The comparative ΔΔCp method is used to calculate EC50, which is based on the relative gene expression of the target gene (3′UTR) normalized with the cellular housekeeping gene (β-actin). In addition, CC50 values are determined based on the Cp values acquired for the housekeeping gene β-actin.
(§2) The culture medium consisted of minimal essential medium supplemented with 2% of heat-inactivated fetal calf serum, 0.04% gentamycin (50mg/mL) and 2 mM of L-glutamine. Vero cells, obtained from ECACC, were suspended in culture medium and 75 μL/well was added in 96-well plates (10000 cells/well), which already contain the antiviral compounds. […] In addition, each plate contains wells which are assigned as virus controls (containing cells and virus in the absence of compound) and cell controls (containing cells in the absence of virus and compound). Once the cells were added in the plates, the plates were incubated in a fully humidified incubator (37° C., 5% CO2) until the next day. Dengue viruses serotype-1, 2, 3 and 4 were diluted in order to obtain a Cp of ˜22-24 in the assay. Therefore, 25 μL of virus suspension was added to all the wells containing test compound and to the wells assigned as virus control. In parallel, 25 μL of culture medium was added to the cell controls. Next, the plates were incubated for 3 days in a fully humidified incubator (37° C., 5% CO2). After 3 days, the supernatant was removed from the wells and the cells were washed twice with ice-cold PBS (˜100 μL). The cell pellets within the 96-well plates were stored at −80° C. for at least 1 day. Next, RNA was extracted using the Cells-to-CT™ lysis kit, according to the manufacturer's guideline (Life Technologies). The cell lysates can be stored at −80° C. or immediately used in the reverse transcription step.
(§3) In preparation of the reverse transcription step, mix A (table 3A) was prepared and 7.57 μL/well was dispensed in a 96-well plate. After addition of 5 μL of the cell lysates, a five minute denaturation step at 75° C. was performed (table 3B). Afterwards, 7.43 μL of mix B was added (table 3C) and the reverse transcription step was initiated (table 3D) to generate cDNA.
(§4) Finally, a RT-qPCR mix was prepared, mix C (table 4A), and 22.02 μL/well was dispensed in 96-well LightCycler qPCR plates to which 3μL of cDNA was added and the qPCR was performed according to the conditions in table 4B on a LightCycler 480.
(§5) Using the LightCycler software and an in-house LIMS system, dose response curves for each compound were calculated and the half maximal effective concentration (EC50) and the half maximal cytotoxic concentration (CC50) were determined (Tables 5-8).

[4] = test system: DENV-2 strain 16681; test: Tetravalent RT-qPCR assay, serotype 2; format: cell-based, Dengue virus; details: Dengue virus, DENV2, Vero, 72 h, RT-qPCR serotype 2 16681, Protocol A, Vero cells, day 3
Protocol: as §1, §2, §3, §4, §5

[5] = test system: DENV-3 strain H87; test: Tetravalent RT-qPCR assay, serotype 3; format: cell-based, Dengue virus; details: Dengue virus, DENV3, Vero, 72 h, RT-qPCR serotype 3 H87, Protocol A, Vero cells, day 3
Protocol: as §1, §2, §3, §4, §5

[6] = test system: DENV-4 strain H241; test: Tetravalent RT-qPCR assay, serotype 4; format: cell-based, Dengue virus; details: Dengue virus, DENV4, Vero, 72 h, RT-qPCR serotype 4 H241, Protocol A, Vero cells, day 3
Protocol: as §1, §2, §3, §4, §5

[7] = in vitro; format: cell-based; details: African green monkey
Protocol: as §1, §2, §5

[8] = test system: Vero cells; details: African green monkey
[9] = test system: DENV-2; details: analogous DENV-2 antiviral assay, reported activity; cited from earlier work
[10] = Dengue virus, DENV2, Vero, 72 h

Structure (SMILES) | EC50 [1, 10] [nM] | melting point [°C] | CC50 [2] [nM] | EC50 [1] [nM] | EC50 [3] [nM] | EC50 [4] [nM] | EC50 [5] [nM] | EC50 [6] [nM] | CC50 at 3 days [7] [nM] | CC50 [8] [nM] | EC50 ([6]; read-out: EC50) [nM] | EC50 [9] [nM]
COc1cc(NC(C(=O)N2CCc3cc(F)c(C(F)(F)F)cc32)c2ccc(Cl)cc2)cc(OCCO)c1 (racemic) [Compound 12, 2-(4-chlorophenyl)-1-(5-fluoro-6-(trifluoromethyl)indolin-1-yl)-2-((3-(2-hydroxyethoxy)-5-methoxyphenyl)amino)ethanone] | 11 | 130 | 11000 |  |  |  |  |  |  |  |  | 
COc1cc(NC(C(=O)N2CCc3cc(OC)c(OC(F)(F)F)cc32)c2ccc(Cl)cc2)cc(OCCO)c1 (single isomer, unassigned) [Compound 13A, 2-(4-chlorophenyl)-2-((3-(2-hydroxyethoxy)-5-methoxyphenyl)amino)-1-(5-methoxy-6-(trifluoromethoxy)indolin-1-yl)ethanone] |  |  |  | 3.5 | 6.3 | 1.5 | 43 | 270 | > 2500 | 12000 |  | 
COc1cc(NC(C(=O)N2CCc3cc(OC)c(C(F)(F)F)cc32)c2ccc(Cl)cc2OC)cc(OCCO)c1 (racemic) [Compound 11, 2-(4-chloro-2-methoxyphenyl)-2-((3-(2-hydroxyethoxy)-5-methoxyphenyl)amino)-1-(5-methoxy-6-(trifluoromethyl)indolin-1-yl)ethanone] | 2.3 | 175 | 22000 |  |  |  |  |  |  |  |  | 
COc1cc(NC(C(=O)N2CCc3ccc(OC(F)(F)F)cc32)c2ccc(Cl)cc2OC)cc(OCCO)c1 (racemic) [Compound 5, 2-(4-chloro-2-methoxyphenyl)-2-((3-(2-hydroxyethoxy)-5-methoxyphenyl)amino)-1-(6-(trifluoromethoxy)indolin-1-yl)ethanone] | 4.6 | 162 | 9300 |  |  |  |  |  |  |  |  | 
COc1cc(NC(C(=O)N2CCc3ccc(OC(F)(F)F)cc32)c2ccc(Cl)cc2F)cc(OCCO)c1 (single isomer, unassigned) [Compound 6B, 2-(4-chloro-2-fluorophenyl)-2-((3-(2-hydroxyethoxy)-5-methoxyphenyl)amino)-1-(6-(trifluoromethoxy)indolin-1-yl)ethanone] |  |  |  | 2.5 | 3.1 | 2 | 28 |  | 4800 | 12000 | 140 | 
COc1cc(NC(C(=O)N2CCc3ccc(C(F)(F)F)cc32)c2ccc(Cl)cc2)cc(OCCO)c1 (racemic) [Compound 4, 2-(4-chlorophenyl)-2-((3-(2-hydroxyethoxy)-5-methoxyphenyl)amino)-1-(6-(trifluoromethyl)indolin-1-yl)ethanone] | 6.7 | 160 | 9700 |  |  |  |  |  |  |  |  | 
COc1cc(NC(C(=O)N2CCc3ccc(OC(F)(F)F)cc32)c2ccc(Cl)cc2)cc(OCCO)c1 (racemic) [Compound 3, 2-(4-chlorophenyl)-2-((3-(2-hydroxyethoxy)-5-methoxyphenyl)amino)-1-(6-(trifluoromethoxy)indolin-1-yl)ethanone] | 5.5 | 162 | 9500 |  |  |  |  |  |  |  |  | 
COc1cc(NC(C(=O)N2CCc3ccc(C(F)(F)F)cc32)c2ccc(Cl)cc2OC)cc(OCCO)c1 (racemic) [Compound 1, 2-(4-chloro-2-methoxyphenyl)-2-((3-(2-hydroxyethoxy)-5-methoxyphenyl)amino)-1-(6-(trifluoromethyl)indolin-1-yl)ethanone] | 5.6 | 194 | 13000 |  |  |  |  |  |  |  |  | 
COc1cc(NC(C(=O)N2CCc3cc(OC)c(C(F)(F)F)cc32)c2ccc(Cl)cc2)cc(OCCO)c1 (single isomer, unassigned) [Compound 7B, 2-(4-chlorophenyl)-2-((3-(2-hydroxyethoxy)-5-methoxyphenyl)amino)-1-(5-methoxy-6-(trifluoromethyl)indolin-1-yl)ethanone] |  |  |  | 1 | 5.1 | 0.96 | 30 |  | 4100 | 12000 | 120 | 
CNC(=O)c1cccc(NC(C(=O)c2c[nH]c3ccccc23)c2ccccc2)c1 (stereo not drawn) [(170) of WO-2013/045516] |  |  |  |  |  |  |  |  |  |  |  | 440
COc1cc(NC(C(=O)N2CCc3ccc(OC(F)(F)F)cc32)c2ccc(Cl)cc2OC)cc(OCCO)c1 (single isomer, unassigned) [Compound 5A, 2-(4-chloro-2-methoxyphenyl)-2-((3-(2-hydroxyethoxy)-5-methoxyphenyl)amino)-1-(6-(trifluoromethoxy)indolin-1-yl)ethanone] |  |  | 9800 | 1.4 | 2.6 | 3 | 20 |  | 4700 |  | 210 | 
COc1cc(NC(C(=O)N2CCc3ccc(C(F)(F)F)cc32)c2ccc(Cl)cc2F)cc(OCCO)c1 (single isomer, unassigned) [Compound 2B, 2-(4-chloro-2-fluorophenyl)-2-((3-(2-hydroxyethoxy)-5-methoxyphenyl)amino)-1-(6-(trifluoromethyl)indolin-1-yl)ethanone] |  |  |  | 2.5 | 2.4 | 3.2 | 29 |  | 4800 | 13000 | 170 | 
